Read-outs that look alike come from different tables or passages of the source.
How the values were obtained:
[1] = tested on: primary myeloma cells of patients; test: Cytotoxicity on primary myeloma cells of patients (CD138 flow cytometry); assay type: cell-based, human; details: 4 days, IL-6 (1 ng/mL), co-cultured with bone marrow environment, n=7
Description: (§1) • Figure 1: BLM expression in normal and malignant plasma cells. BLM expression in normal BMPCs (N = 5), in MM cells of patients with intramedullary MM (N = 206) and in HMCLs (N = 26). Ordinate : BLM expression, as expressed in Affimetrix signal arbitrary units. Abscissa : from left to right : BMPCs (n=5); MMCs (n=206) and HMCLs (n=26). • Figure 2: BLM gene expression in the 7 MM molecular subgroups of the TT2-cohort. PR = proliferation, LB = low bone disease, MS = MMSET, HY = hyperdiploid, CD1 = cyclin D1/D3, CD2 = cyclin D1/D3, MF = MAF. * indicates higher score value compared to all other groups with P<0.05. Ordinate : BLM expression, as expressed in Affimetrix signal arbitrary units. Abscissa : from left to right: PR, LB, MS, HY, CD1, CD2 and MF . • Figure 3: BLM expression in MMCs could predict for shorter overall and event free survival in independent cohorts of patients. • Figure 3A : Patients of the HM cohort (n = 206) were ranked according to increasing BLM expression and a maximum difference in overall survival (OS) was obtained using the Maxstat R function. Upper curve : BLM^Low; Lower curve : BLM^High. Ordinate : Overall Survival (OS). Abscissa : Days from diagnosis. • Figure 3B : BLM expression is also associated with a shorter event free survival (EFS) in the HM cohort (n = 206). Upper curve : BLM^Low; Lower curve : BLM^High. Ordinate : Effective Survival (EFS)). […] At day 4 of culture, the viability was assessed by CellTiter-Glo® Luminescent Cell Viability Assay. […] Data are mean values ± standard deviation (SD) of five experiments determined on sextuplet culture wells. • Figure 4A : Growth inhibition of a plurality of MM cell lines in the presence of the ML216 BLM inhibitor. Ordinate : cell growth inhibition, as expressed as percent of control cells without ML216 :Cell lines tested : □ XG1 cells; ◊ XG7 cells; ○ XG12 cells; ◆XG25 cells; ● XG19 cells; + LP1 cells. […] At day 4 of culture, the viability and total cell counts were assessed and the percentage of CD138 viable plasma and non-myeloma cells was determined by flow cytometry. […]

[2] = tested on: human myeloma cell lines (HMCL); test: Cell growth inhibition of human myeloma cell lines (CellTiter-Glo Luminescent Cell Viability Assay); assay type: cell-based; details: 96 h, 4 days culture, 2 ng/ml interleukin six
Description: as §1, with “units.” for “units. Abscissa : from left to right: PR, LB, MS, HY, CD1, CD2 and MF . • Figure 3: BLM expression in MMCs could predict for shorter overall and event free survival in independent cohorts of patients. • Figure 3A : Patients of the HM cohort (n = 206) were ranked according to increasing BLM expression and a maximum difference in overall survival (OS) was obtained using the Maxstat R function. Upper curve : BLM^Low; Lower curve : BLM^High. Ordinate : Overall Survival (OS). Abscissa : Days from diagnosis. • Figure 3B : BLM expression is also associated with a shorter event free survival (EFS) in the HM cohort (n = 206). Upper curve : BLM^Low; Lower curve : BLM^High. Ordinate : Effective Survival (EFS)).”

IC50 ([2]; median over 6 HMCL (XG-1, XG-7, XG-12, XG-25, XG-19, LP1), read-out: median IC50): 4.1 µM
IC50 ([2]; range over 6 HMCL, read-out: IC50 (range)): 1.2 to 30 µM
Structure (SMILES): O=C(Nc1ccc(F)c(C(F)(F)F)c1)Nc1nnc(-c2ccncc2)s1 [ML216]
reduction of the median number of viable myeloma cells ([1]; 3 µM, P = 0.001): 54%
reduction of the median number of viable myeloma cells ([1]; 6 µM, P < 0.001): 60%
reduction of the median number of viable myeloma cells ([1]; 10 µM, P <0.001): 74%

— patent EP3255433A1, “METHODS USING BLM AS A MARKER OF MULTIPLE MYELOMA” (priority 2016, dated 2017)
